Square brackets hold non-standard residues; d marks the D form. Peptide text beside a SMILES is read from it. * marks the point of attachment. Sta = CC(C)C[C@H](N)[C@@H](O)CC(=O)O; Isovaleryl = CC(C)CC(=O)*; NHIsopentyl = CC(C)CCN*; Boc = CC(C)(C)OC(=O)*
Molecular target: T1, Cathepsin D (Bos taurus, UniProt P80209)
T1 sequence (P80209 whole entry): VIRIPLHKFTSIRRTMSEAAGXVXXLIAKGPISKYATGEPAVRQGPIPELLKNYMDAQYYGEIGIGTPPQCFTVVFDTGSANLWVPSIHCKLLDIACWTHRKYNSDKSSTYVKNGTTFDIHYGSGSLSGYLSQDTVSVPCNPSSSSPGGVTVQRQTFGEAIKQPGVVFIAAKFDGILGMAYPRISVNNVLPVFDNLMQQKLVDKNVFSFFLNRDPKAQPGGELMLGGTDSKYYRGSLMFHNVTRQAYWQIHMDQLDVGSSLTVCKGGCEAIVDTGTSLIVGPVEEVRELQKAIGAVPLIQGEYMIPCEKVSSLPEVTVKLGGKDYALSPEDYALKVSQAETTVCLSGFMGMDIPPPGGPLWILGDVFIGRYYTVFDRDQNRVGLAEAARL
Assay: Inhibition of cathepsin D.

Compound | Ki [nM]
CC(C)CCNC(=O)[C@H](C)NC(=O)C[C@H](O)[C@H](Cc1ccccc1)NC(=O)[C@H](NC(=O)CC(C)C)C(C)C | 1070
CC(C)CCNC(=O)[C@H](C)NC(=O)C[C@H](O)[C@H](CC(C)C)NC(=O)[C@@H](NC(=O)C(C)C)C(C)C | 590
CC(C)CCNC(=O)[C@H](C)NC(=O)C[C@H](O)[C@@H](Cc1ccccc1)NC(=O)[C@@H](NC(=O)[C@@H](NC(=O)CC(C)C)C(C)C)C(C)C | 100
CC(C)CCNC(=O)[C@H](C)NC(=O)C[C@H](O)[C@@H](Cc1ccccc1)NC(=O)[C@@H](NC(=O)OC(C)(C)C)C(C)C | 4860
CC(C)CCNC(=O)[C@H](C)NC(=O)C[C@H](O)[C@H](CC(C)C)NC(=O)[C@@H](NC(=O)OC(C)(C)C)C(C)C | 2700
CC(C)CCNC(=O)[C@H](C)NC(=O)C[C@H](O)[C@H](CC(C)C)NC(=O)[C@H](C)NC(=O)[C@H](C)NC(=O)[C@H](Cc1ccccc1)NC(=O)OC(C)(C)C (Boc-FAA[Sta]A-NHIsopentyl) | 100
CC(C)CCNC(=O)[C@H](C)NC(=O)C[C@H](C)[C@H](CC(C)C)NC(=O)[C@@H](NC(=O)[C@@H](NC(=O)CC(C)C)C(C)C)C(C)C | 400
CC(C)CCNC(=O)[C@H](C)NC(=O)C[C@@H](O)[C@@H](CC(C)C)NC(=O)[C@@H](NC(=O)[C@@H](NC(=O)OC(C)(C)C)C(C)C)C(C)C | 445
CCC(CC)C(=O)N[C@H](C(=O)N[C@@H](CC(C)C)[C@@H](O)CC(=O)N[C@@H](C)C(=O)NCCC(C)C)C(C)C | 120
COC(=O)[C@H](C)NC(=O)C[C@H](O)[C@H](CC(C)C)NC(=O)[C@@H](NC(=O)CC(C)C)C(C)C | 1800
CCC(C)C(=O)N[C@H](C(=O)N[C@@H](CC(C)C)[C@@H](O)CC(=O)N[C@@H](C)C(=O)NCCC(C)C)C(C)C (stereo partly specified) | 230
CCOC(=O)C[C@H](O)[C@H](CC(C)C)NC(=O)[C@@H](NC(=O)[C@@H](NC(=O)CC(C)C)C(C)C)C(C)C (Isovaleryl-Val-Val-[Sta]-OEt) | 180
CC(C)CCNC(=O)[C@H](C)NC(=O)C[C@H](O)[C@@H](CC(C)C)NC(=O)[C@@H](NC(=O)[C@@H](NC(=O)CC(C)C)C(C)C)C(C)C | > 100
CC(C)CCNC(=O)[C@H](C)NC(=O)C[C@H](O)[C@H](CC(C)C)NC(=O)[C@@H](NC(=O)C(C)(C)C)C(C)C | 110
CC(C)CCNC(=O)[C@H](C)NC(=O)C[C@H](O)[C@@H](CC(C)C)NC(=O)[C@@H](NC(=O)CC(C)C)C(C)C | 2100
CC(C)CCNC(=O)[C@H](C)NC(=O)C[C@H](C)[C@@H](CC(C)C)NC(=O)[C@@H](NC(=O)[C@@H](NC(=O)CC(C)C)C(C)C)C(C)C | 214
CC(C)CCNC(=O)[C@H](C)NC(=O)C(C(=O)[C@H](CC(C)C)NC(=O)[C@@H](NC(=O)[C@@H](NC(=O)CC(C)C)C(C)C)C(C)C)[S+](C)C (stereo partly specified) | 107
CC(C)CCNC(=O)[C@H](C)NC(=O)C[C@H](O)[C@H](CC(C)C)NC(=O)[C@@H](NC(=O)OC(C)C)C(C)C | 620
CC(C)CCNC(=O)[C@H](C)NC(=O)C[C@H](C)[C@H](Cc1ccccc1)NC(=O)[C@@H](NC(=O)OC(C)(C)C)C(C)C | 930
CC(C)CCNC(=O)[C@H](C)NC(=O)C[C@@H](O)[C@@H](CC(C)C)NC(=O)[C@@H](NC(=O)CC(C)C)C(C)C | 1400
CC(C)CCNC(=O)[C@H](C)NC(=O)C[C@H](O)[C@H](CC(C)C)NC(=O)[C@@H](NC(=O)CC(C)C)C(C)C | 220
CC(C)CCNC(=O)[C@H](C)NC(=O)C[C@H](O)[C@H](Cc1ccccc1)NC(=O)[C@@H](NC(=O)OC(C)(C)C)C(C)C | 370

These reach a lower Ki. Values come first.

Ki [nM] | Compound
3.7 | CC(C)CCNC(=O)[C@H](C)NC(=O)C[C@H](O)[C@H](CC(C)C)NC(=O)[C@@H](NC(=O)[C@@H](NC(=O)CC(C)C)C(C)C)C(C)C
43 | COC(=O)[C@H](CC(C)C)NC(=O)[C@H](C)NC(=O)C[C@H](O)[C@H](CC(C)C)NC(=O)[C@@H](NC(=O)CC(C)C)C(C)C (Isovaleryl-V[Sta]AL-OMe)
90 | COC(=O)[C@H](C)NC(=O)C[C@H](O)[C@H](CC(C)C)NC(=O)[C@@H](NC(=O)[C@@H](NC(=O)CC(C)C)C(C)C)C(C)C (Isovaleryl-VV[Sta]A-OMe)
1.1 | CC(C)CCNC(=O)[C@H](C)NC(=O)C[C@H](O)[C@H](CC(C)C)NC(=O)[C@@H](NC(=O)[C@@H](NC(=O)OC(C)(C)C)C(C)C)C(C)C
60 | COC(=O)[C@H](CC(C)C)NC(=O)[C@@H](NC(=O)[C@H](Cc1ccccc1)NC(=O)C[C@H](O)[C@H](CC(C)C)NC(=O)[C@H](C)NC(=O)[C@H](C)NC(=O)[C@H](Cc1ccccc1)NC(=O)OC(C)(C)C)C(C)C (Boc-FAA[Sta]FVL-OMe)
12 | COC(=O)[C@H](CC(C)C)NC(=O)[C@@H](NC(=O)C[C@H](O)[C@H](CC(C)C)NC(=O)[C@H](C)NC(=O)[C@H](C)NC(=O)[C@H](Cc1ccccc1)NC(=O)OC(C)(C)C)C(C)C (Boc-FAA[Sta]VL-OMe)
5.8 | COC(=O)[C@H](CC(C)C)NC(=O)[C@@H](NC(=O)[C@H](Cc1ccccc1)NC(=O)C[C@H](O)[C@H](CC(C)C)NC(=O)[C@H](C)NC(=O)[C@H](CC(C)C)NC(=O)[C@H](Cc1ccccc1)NC(=O)OC(C)(C)C)C(C)C (Boc-FLA[Sta]FVL-OMe)
1 | CC(C)CCNC(=O)[C@H](C)NC(=O)C[C@H](O)[C@H](Cc1ccccc1)NC(=O)[C@@H](NC(=O)[C@@H](NC(=O)CC(C)C)C(C)C)C(C)C
95 | CC(C)CCNC(=O)[C@H](C)NC(=O)C[C@H](O)[C@@H](Cc1ccccc1)NC(=O)[C@@H](NC(=O)[C@@H](NC(=O)OC(C)(C)C)C(C)C)C(C)C
2.1 | CC(C)CCNC(=O)[C@H](C)NC(=O)C[C@H](O)[C@H](Cc1ccccc1)NC(=O)[C@@H](NC(=O)[C@@H](NC(=O)OC(C)(C)C)C(C)C)C(C)C
23 | COC(=O)[C@H](Cc1ccccc1)NC(=O)[C@H](C)NC(=O)C[C@H](O)[C@H](CC(C)C)NC(=O)[C@@H](NC(=O)CC(C)C)C(C)C (Isovaleryl-V[Sta]AF-OMe)
52 | CC(C)CCNC(=O)[C@H](C)NC(=O)C[C@H](O)[C@@H](Cc1ccccc1)NC(=O)[C@H](NC(=O)CC(C)C)C(C)C
12 | COC(=O)[C@H](CC(C)C)NC(=O)[C@@H](NC(=O)[C@H](Cc1ccccc1)NC(=O)C[C@H](O)[C@H](CC(C)C)NC(=O)[C@H](C)NC(=O)[C@H](Cc1ccccc1)NC(=O)[C@H](Cc1ccccc1)NC(=O)OC(C)(C)C)C(C)C (Boc-FFA[Sta]FVL-OMe)
25 | CC(C)CCNC(=O)[C@H](C)NC(=O)CC(=O)[C@H](CC(C)C)NC(=O)[C@@H](NC(=O)[C@@H](NC(=O)CC(C)C)C(C)C)C(C)C

Molecular target: Pepsin A (Sus scrofa, UniProt P00791)
Assay: Compound was tested for inhibition of pepsin.

Pepsin A, sequence (P00791 whole entry): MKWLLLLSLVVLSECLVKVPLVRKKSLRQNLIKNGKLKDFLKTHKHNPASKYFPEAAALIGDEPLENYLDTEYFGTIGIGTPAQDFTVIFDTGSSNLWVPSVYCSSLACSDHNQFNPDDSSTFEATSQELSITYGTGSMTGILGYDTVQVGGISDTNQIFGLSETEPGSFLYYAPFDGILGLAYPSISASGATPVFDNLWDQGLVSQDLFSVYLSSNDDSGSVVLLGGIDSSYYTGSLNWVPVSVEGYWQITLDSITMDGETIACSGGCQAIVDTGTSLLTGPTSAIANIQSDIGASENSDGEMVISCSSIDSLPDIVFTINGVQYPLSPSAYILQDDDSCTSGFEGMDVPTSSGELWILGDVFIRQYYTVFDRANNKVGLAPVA

Ki [nM] | Compound
3.3 | CC(C)CCNC(=O)[C@H](C)NC(=O)C[C@H](O)[C@H](CC(C)C)NC(=O)[C@H](C)NC(=O)[C@H](C)NC(=O)[C@H](Cc1ccccc1)NC(=O)OC(C)(C)C (Boc-FAA[Sta]A-NHIsopentyl)
1.7 | COC(=O)[C@H](CC(C)C)NC(=O)[C@@H](NC(=O)[C@H](Cc1ccccc1)NC(=O)C[C@H](O)[C@H](CC(C)C)NC(=O)[C@H](C)NC(=O)[C@H](C)NC(=O)[C@H](Cc1ccccc1)NC(=O)OC(C)(C)C)C(C)C (Boc-FAA[Sta]FVL-OMe)
2.8 | COC(=O)[C@H](CC(C)C)NC(=O)[C@@H](NC(=O)C[C@H](O)[C@H](CC(C)C)NC(=O)[C@H](C)NC(=O)[C@H](C)NC(=O)[C@H](Cc1ccccc1)NC(=O)OC(C)(C)C)C(C)C (Boc-FAA[Sta]VL-OMe)
0.64 | COC(=O)[C@H](CC(C)C)NC(=O)[C@@H](NC(=O)[C@H](Cc1ccccc1)NC(=O)C[C@H](O)[C@H](CC(C)C)NC(=O)[C@H](C)NC(=O)[C@H](CC(C)C)NC(=O)[C@H](Cc1ccccc1)NC(=O)OC(C)(C)C)C(C)C (Boc-FLA[Sta]FVL-OMe)
24 | COC(=O)[C@H](CC(C)C)NC(=O)[C@@H](NC(=O)[C@H](Cc1ccccc1)NC(=O)C[C@H](O)[C@H](CC(C)C)NC(=O)[C@H](C)NC(=O)[C@H](Cc1ccccc1)NC(=O)[C@H](Cc1ccccc1)NC(=O)OC(C)(C)C)C(C)C (Boc-FFA[Sta]FVL-OMe)

— ChEMBL document CHEMBL1123387 (J Med Chem, 1986)
